Results as given in US3965109A, “Certain aryl amino pyridines” (priority 1971, dated 1976).

Key:
[1] = test system: larvae of the blowfly (Lucilia serrata); assay: Insecticidal test on blowfly larvae on treated filter paper; assay type: in vivo; set-up: key: 5 represents inseccticidal activity equal to that of the known insecticide; 6 represents activity 10 times that of the standard; conditions: scale of 1 to 6; filter paper with horse serum
[2] = test system: Tetranychus telarius (red spider mites, adults); assay: Pest toxicity test; assay type: in vivo; conditions: 0.1% by weight; French bean; 3 days
[3] = test system: Tetranychus telarius (red spider mites, eggs); assay: Pest toxicity test; assay type: in vivo; conditions: 0.1% by weight; French bean; 3 days
[4] = test system: Agriolimax reticulatus (slugs); assay: Molluscicidal activity test; assay type: in vivo, Agriolimax reticulatus (Mull); conditions: pellet with 4% by weight; 6 days; 10°C
Method in brief: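 Slugs were starved for 24 hours, then housed two per dish, in duplicate, under high humidity at 10°C. They fed on pellets dried to contain 4% w/w of test compound. Mortality was scored on day 6.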

Megoura viceae = assay: Pest toxicity test; assay type: in vivo; conditions: 0.1% by weight; broad bean; 2 days
Uncinula necator (vine) = assay: Fungicidal test against foliar disease D (foliage spray plus soil drench); assay type: in vivo; conditions: 100 ppm spray and drench; 10 days
Aphis fabae = assay: Pest toxicity test; assay type: in vivo; conditions: 0.1% by weight; broad bean; 2 days
[5] = test system: Musca domestica (houseflies); assay: Pest toxicity test, contact test; assay type: in vivo; conditions: 0.1% by weight; milk/sugar; 2 days; flies sprayed directly
[6] = test system: Aedes aegypti (mosquito adults); assay: Pest toxicity test; assay type: in vivo; conditions: 0.01% by weight; plywood; 1 day
[7] = test system: Pieris brassicae (cabbage white caterpillars); assay: Pest toxicity test; assay type: in vivo; conditions: 0.1% by weight, 2 days
[8] = test system: Phaedon cochleariae (mustard beetles); assay: Pest toxicity test; assay type: in vivo; conditions: in vivo
[9] = test system: Phytophthora infestans (tomato); assay type: in vivo; conditions: 100 ppm spray and drench; 3 days
[10] = test system: Aedes aegypti (mosquito larvae); assay: Pest toxicity test; assay type: in vivo; conditions: 0.01% by weight; water; 1 day
[11] = test system: Meloidogyne incognita (nematodes); assay: Pest toxicity test; assay type: in vivo; conditions: 0.01% by weight; water; 1 day
[12] = test system: Puccinia recondita (wheat); assay: Fungicidal test against foliar disease A (foliage spray plus soil drench); assay type: in vivo; conditions: 100 ppm spray and drench; 10 days
[13] = test system: Piricularia oryzae (rice); assay type: in vivo; conditions: 100 ppm spray and drench; 7 days
[14] = test system: Plasmopara viticola (vine); assay: Fungicidal test against foliar disease C (foliage spray plus soil drench); assay type: in vivo; conditions: 100 ppm spray and drench; 10 days
[15] = test system: Plutella maculipennis (diamond back moth larvae); assay: Pest toxicity test; assay type: in vivo; conditions: in vivo
Xanthomonas oryzae = assay type: cell-based; conditions: 50 ppm; 5 days
Kale = assay: Further herbicidal test, various rates; assay type: in vivo; conditions: 5 lb/acre; scale 0 to 5 (complete kill)
Wheat = assay: Herbicidal test, pre- and post-emergence; assay type: in vivo; conditions: 10 lb/acre (11.2 kg/ha); scale 0 (no effect) to 3 (complete kill)
Streptomyces scabies = assay: Antibacterial agar test (B7); assay type: cell-based; conditions: 50 ppm; 5 days
Tomato = assay: Herbicidal test, pre- and post-emergence; assay type: in vivo; conditions: 10 lb/acre (11.2 kg/ha); scale 0 (no effect) to 3 (complete kill)
Maize = assay: Herbicidal test, pre- and post-emergence; assay type: in vivo; conditions: 10 lb/acre (11.2 kg/ha); scale 0 (no effect) to 3 (complete kill)
Rice = assay: Further herbicidal test, various rates; assay type: in vivo; conditions: 5 lb/acre; scale 0 to 5 (complete kill)
Xanthomonas malvacearum = assay: Antibacterial agar test (B3); assay type: cell-based; conditions: 50 ppm; 5 days
Method in brief: (§1)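 Bacterial growth on nutrient agar containing 50 ppm final test compound (added from an acetone solution or suspension) was scored 5 days after multipoint inoculation, using graded ratings. Plates were dried overnight before inoculation.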

Erwinia carotovora = assay: Antibacterial agar test (B4); assay type: cell-based; conditions: 50 ppm; 5 days
Oat = assay: Further herbicidal test, various rates; assay type: in vivo; conditions: 5 lb/acre; scale 0 to 5 (complete kill)
Barley = assay: Further herbicidal test, various rates; assay type: in vivo; conditions: 5 lb/acre; scale 0 to 5 (complete kill)
Onion = assay: Further herbicidal test, various rates; assay type: in vivo; conditions: 5 lb/acre; scale 0 to 5 (complete kill)
Carrot = assay: Further herbicidal test, various rates; assay type: in vivo; conditions: 5 lb/acre; scale 0 to 5 (complete kill)
[16] = test system: Agrobacterium tumifaciens; assay: Antibacterial agar test (B1); assay type: cell-based; conditions: 50 ppm; 5 days
[17] = test system: Corynebacterium michiganense; assay: Antibacterial agar test (B2); assay type: cell-based; conditions: 50 ppm; 5 days
Method in brief: as §1

Pseudomonas syringae = assay: Antibacterial agar test (B6); assay type: cell-based; conditions: 50 ppm; 5 days
Sugar beet = assay: Further herbicidal test, various rates; assay type: in vivo; conditions: 5 lb/acre; scale 0 to 5 (complete kill)
Pea = assay: Further herbicidal test, various rates; assay type: in vivo; conditions: 5 lb/acre; scale 0 to 5 (complete kill)
[18] = test system: Venturia inaequalis (apple); assay: Fungicidal test against foliar disease G (foliage spray plus soil drench); assay type: in vivo; conditions: 100 ppm spray and drench; 21 days
Description: This Example illustrates the fungicidal properties of compounds used as active ingredients in the compositions of the invention. The compounds were tested against a wide variety of foliar fungal diseases of plants. In the test, a composition comprising an aqueous solution or suspension of the test compound was sprayed on to the foliage or uninfected plants; the soil in which the plants were growing was also drenched with the composition. The compositions used for spraying and drencing contained 100 parts per million (ppm.) of the test compound except where otherwise stated in the table of results below. After spraying and drenching, the plants were then exposed to infection with the diseases it was desired to control, along with control plants not treated with the compound. After a period of days, depending upon the particular disease, the extent of the disease was visually assessed, as a percentage of the disease established upon the control plants which had not been treated with the compound under test, according to the grading scheme below
In Table 2 below the names of the disease is given in the first column, and in the second column is given the time which elapsed between exposing the plants to infection and assessing the amount of disease.

Lettuce = assay: Herbicidal test, pre- and post-emergence; assay type: in vivo; conditions: 10 lb/acre (11.2 kg/ha); scale 0 (no effect) to 3 (complete kill)

SMILES: O=[N+]([O-])c1cc([N+](=O)[O-])c2ccccc2c1Nc1c(Cl)c(F)nc(F)c1Cl [Compound 25, 3,5-Dichloro-2,6-difluoro-4(2,4-dinitro-1-naphthylamino) pyridine]
- Activity relative to lindane [1]: 5
- Mortality grading (kill) [2]: 0 (O represents less than 30% kill)
- Mortality grading (kill) [3]: 2 (2 represents 60 - 90% kill)
- % Kill of slugs [4]: 50%
- Mortality grading (kill) (Megoura viceae): 0 (O represents less than 30% kill)
- Amount of disease grading, disease D (Table 4) (Uncinula necator (vine)): 3 (0 to 5)
- Mortality grading (kill) (Aphis fabae): 0 (O represents less than 30% kill)
- Mortality grading (kill), contact test [5]: 0 (O represents less than 30% kill)
- Mortality grading (kill) [6]: 0 (O represents less than 30% kill)
- Mortality grading (kill) [7]: 3 (3 represents over 90% kill)
- Mortality grading (kill) [8]: 2 (key: O represents less than 30% kill; 1 represents 30 - 49% kill; 2 represents 60 - 90% kill; 3 represents over 90% kill; C indicates a chemosterilant effect.; A indicates an antifeeding effect.)
- Amount of disease grading, disease B (Table 4) [9]: 3 (0 to 5)
- Mortality grading (kill) [10]: 3 (3 represents over 90% kill)
- Mortality grading (kill) [11]: 3 (3 represents over 90% kill)
- Amount of disease grading, disease A (Table 4) [12]: 2 (6 to 25)
- Amount of disease grading, disease E (Table 4) [13]: 0 (61 to 100)
- Amount of disease grading, disease C (Table 4) [14]: 3 (0 to 5)
- Mortality grading (kill) [15]: 0 (key: O represents less than 30% kill; 1 represents 30 - 49% kill; 2 represents 60 - 90% kill; 3 represents over 90% kill; C indicates a chemosterilant effect.; A indicates an antifeeding effect.)

SMILES: N#Cc1c(F)c(F)c(Nc2c(Cl)c(F)nc(F)c2Cl)c(F)c1F [Compound 19, 4(4-Cyano-2,3,5,6-tetrafluoroanilino)-3,5-dichloro-2,6-difluoropyridine]
- Antibacterial activity grading B5 (Xanthomonas oryzae): 3 (0 to 5)
- Activity relative to lindane [1]: 5
- Damage to plants, post-emergence (Kale): 3
- Mortality grading (kill) [2]: 3 (3 represents over 90% kill)
- Mortality grading (kill) [3]: 3 (3 represents over 90% kill)
- Damage to plants, post-emergence (Wheat): 2
- Damage to plants, pre-emergence (Wheat): 3
- Antibacterial activity grading B7 (Streptomyces scabies): 3 (0 to 5)
- Damage to plants, post-emergence (Tomato): 3
- Damage to plants, pre-emergence (Tomato): 3
- Damage to plants, post-emergence (Maize): 1
- Damage to plants, pre-emergence (Maize): 3
- Mortality grading (kill) (Megoura viceae): 3 (3 represents over 90% kill)
- Mortality grading (kill) (Aphis fabae): 3 (3 represents over 90% kill)
- Damage to plants, post-emergence (Rice): 2
- Antibacterial activity grading B3 (Xanthomonas malvacearum): 3 (0 to 5)
- Antibacterial activity grading B4 (Erwinia carotovora): 3 (0 to 5)
- Damage to plants, post-emergence (Oat): 0
- Mortality grading (kill), contact test [5]: 3 (3 represents over 90% kill)
- Mortality grading (kill) [6]: 3 (3 represents over 90% kill)
- Mortality grading (kill) [7]: 2 (2 represents 60 - 90% kill)
- Damage to plants, post-emergence (Barley): 2
- Damage to plants, post-emergence (Onion): 1
- Damage to plants, post-emergence (Carrot): 0
- Antibacterial activity grading B1 [16]: 3 (0 to 5)
- Mortality grading (kill) [8]: 0 (key: O represents less than 30% kill; 1 represents 30 - 49% kill; 2 represents 60 - 90% kill; 3 represents over 90% kill; C indicates a chemosterilant effect.; A indicates an antifeeding effect.)
- Antibacterial activity grading B2 [17]: 3 (0 to 5)
- Mortality grading (kill) [10]: 3 (3 represents over 90% kill)
- Antibacterial activity grading B6 (Pseudomonas syringae): 3 (0 to 5)
- Damage to plants, post-emergence (Sugar beet): 2
- Damage to plants, post-emergence (Pea): 0
- Mortality grading (kill) [15]: 0 (key: O represents less than 30% kill; 1 represents 30 - 49% kill; 2 represents 60 - 90% kill; 3 represents over 90% kill; C indicates a chemosterilant effect.; A indicates an antifeeding effect.)
- Amount of disease grading, disease G [18]: 3 (0 to 5)
- Damage to plants, post-emergence (Lettuce): 3
- Damage to plants, pre-emergence (Lettuce): 3
